Laboratory results: ChEMBL document CHEMBL3632492, “Substituted 2-arylquinazolinones: Design, synthesis, and evaluation of cytotoxicity and inhibition of topoisomerases” (Eur J Med Chem, 2015)

Legend:
[1] = molecular target: T1, DNA topoisomerase 1 (Homo sapiens) (UniProt P11387); assay: Potency index, ratio of compound activity to CPT activity for inhibition of recombinant human topoisomerase 1 at 100 uM
T1 sequence (whole entry): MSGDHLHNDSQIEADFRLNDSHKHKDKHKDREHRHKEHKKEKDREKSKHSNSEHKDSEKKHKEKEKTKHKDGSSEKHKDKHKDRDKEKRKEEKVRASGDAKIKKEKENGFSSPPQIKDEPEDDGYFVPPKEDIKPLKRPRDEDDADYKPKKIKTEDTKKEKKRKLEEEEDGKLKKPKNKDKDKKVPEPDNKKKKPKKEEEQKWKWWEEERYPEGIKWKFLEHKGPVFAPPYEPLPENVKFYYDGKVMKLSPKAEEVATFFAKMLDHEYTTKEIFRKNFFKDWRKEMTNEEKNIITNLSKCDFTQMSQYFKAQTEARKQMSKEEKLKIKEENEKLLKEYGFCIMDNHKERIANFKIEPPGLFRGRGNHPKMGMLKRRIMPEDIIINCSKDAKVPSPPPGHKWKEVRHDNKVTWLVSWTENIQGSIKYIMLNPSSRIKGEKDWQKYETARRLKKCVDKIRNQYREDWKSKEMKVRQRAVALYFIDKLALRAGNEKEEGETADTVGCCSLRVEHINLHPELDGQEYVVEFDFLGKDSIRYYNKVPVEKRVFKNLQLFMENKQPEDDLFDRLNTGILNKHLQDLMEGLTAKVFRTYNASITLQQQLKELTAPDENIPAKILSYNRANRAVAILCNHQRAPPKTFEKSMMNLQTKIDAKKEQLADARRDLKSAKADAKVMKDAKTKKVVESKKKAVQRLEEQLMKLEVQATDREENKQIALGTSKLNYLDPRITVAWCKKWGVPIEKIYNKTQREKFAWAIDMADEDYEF

[2] = molecular target: T1, DNA topoisomerase 1 (Homo sapiens); assay: Inhibition of recombinant human topoisomerase 1 assessed as relaxation of supercoiled plasmid DNA pBR322 at 100 uM incubated for 30 mins by agarose gel electrophoresis
[3] = molecular target: T1, DNA topoisomerase 1 (Homo sapiens); assay: Inhibition of recombinant human topoisomerase 1 assessed as relaxation of supercoiled plasmid DNA pBR322 at 20 uM incubated for 30 mins by agarose gel electrophoresis
[4] = molecular target: DNA topoisomerase 2-alpha (Homo sapiens) (UniProt P11388); assay: Inhibition of recombinant human topoisomerase 2alpha assessed as relaxation of supercoiled plasmid DNA pBR322 at 100 uM incubated for 30 mins by agarose gel electrophoresis
[5] = molecular target: DNA topoisomerase 2-alpha (Homo sapiens) (UniProt P11388); assay: Inhibition of recombinant human topoisomerase 2alpha assessed as relaxation of supercoiled plasmid DNA pBR322 at 20 uM incubated for 30 mins by agarose gel electrophoresis
[6] = molecular target: T1, DNA topoisomerase 1 (Homo sapiens); assay: Potency index, ratio of compound activity to CPT activity for inhibition of recombinant human topoisomerase 1 at 20 uM
[7] = molecular target: DNA topoisomerase 2-alpha (Homo sapiens) (UniProt P11388); assay: Potency index, ratio of compound activity to etoposide activity for inhibition of recombinant human topoisomerase 2alpha at 100 uM
[8] = test system: HCT-15; assay: Cytotoxicity against human HCT15 cells measured after 2 days by MTT assay; format: functional, cell-based; details: HCT-15, 48 h
[9] = test system: T47D; assay: Cytotoxicity against human T47D cells measured after 2 days by MTT assay; format: functional, cell-based; details: 48 h
[10] = test system: HeLa; assay: Cytotoxicity against human HeLa cells measured after 2 days by MTT assay; format: functional, cell-based; details: 48 h
[11] = molecular target: DNA topoisomerase 2-alpha (Homo sapiens) (UniProt P11388); assay: Potency index, ratio of compound activity to etoposide activity for inhibition of recombinant human topoisomerase 2alpha at 20 uM
[12] = molecular target: DNA topoisomerase 2-alpha (Homo sapiens) (UniProt P11388); assay: Inhibition of recombinant human topoisomerase 2alpha mediated decatenation using kDNA as substrate at 100 uM incubated for 30 mins by agarose gel electrophoresis
[13] = molecular target: DNA topoisomerase 2-alpha (Homo sapiens) (UniProt P11388); assay: Inhibition of recombinant human topoisomerase 2alpha mediated decatenation using kDNA as substrate at 50 uM incubated for 30 mins by agarose gel electrophoresis

Sequence of DNA topoisomerase 2-alpha (Homo sapiens) (P11388 whole entry): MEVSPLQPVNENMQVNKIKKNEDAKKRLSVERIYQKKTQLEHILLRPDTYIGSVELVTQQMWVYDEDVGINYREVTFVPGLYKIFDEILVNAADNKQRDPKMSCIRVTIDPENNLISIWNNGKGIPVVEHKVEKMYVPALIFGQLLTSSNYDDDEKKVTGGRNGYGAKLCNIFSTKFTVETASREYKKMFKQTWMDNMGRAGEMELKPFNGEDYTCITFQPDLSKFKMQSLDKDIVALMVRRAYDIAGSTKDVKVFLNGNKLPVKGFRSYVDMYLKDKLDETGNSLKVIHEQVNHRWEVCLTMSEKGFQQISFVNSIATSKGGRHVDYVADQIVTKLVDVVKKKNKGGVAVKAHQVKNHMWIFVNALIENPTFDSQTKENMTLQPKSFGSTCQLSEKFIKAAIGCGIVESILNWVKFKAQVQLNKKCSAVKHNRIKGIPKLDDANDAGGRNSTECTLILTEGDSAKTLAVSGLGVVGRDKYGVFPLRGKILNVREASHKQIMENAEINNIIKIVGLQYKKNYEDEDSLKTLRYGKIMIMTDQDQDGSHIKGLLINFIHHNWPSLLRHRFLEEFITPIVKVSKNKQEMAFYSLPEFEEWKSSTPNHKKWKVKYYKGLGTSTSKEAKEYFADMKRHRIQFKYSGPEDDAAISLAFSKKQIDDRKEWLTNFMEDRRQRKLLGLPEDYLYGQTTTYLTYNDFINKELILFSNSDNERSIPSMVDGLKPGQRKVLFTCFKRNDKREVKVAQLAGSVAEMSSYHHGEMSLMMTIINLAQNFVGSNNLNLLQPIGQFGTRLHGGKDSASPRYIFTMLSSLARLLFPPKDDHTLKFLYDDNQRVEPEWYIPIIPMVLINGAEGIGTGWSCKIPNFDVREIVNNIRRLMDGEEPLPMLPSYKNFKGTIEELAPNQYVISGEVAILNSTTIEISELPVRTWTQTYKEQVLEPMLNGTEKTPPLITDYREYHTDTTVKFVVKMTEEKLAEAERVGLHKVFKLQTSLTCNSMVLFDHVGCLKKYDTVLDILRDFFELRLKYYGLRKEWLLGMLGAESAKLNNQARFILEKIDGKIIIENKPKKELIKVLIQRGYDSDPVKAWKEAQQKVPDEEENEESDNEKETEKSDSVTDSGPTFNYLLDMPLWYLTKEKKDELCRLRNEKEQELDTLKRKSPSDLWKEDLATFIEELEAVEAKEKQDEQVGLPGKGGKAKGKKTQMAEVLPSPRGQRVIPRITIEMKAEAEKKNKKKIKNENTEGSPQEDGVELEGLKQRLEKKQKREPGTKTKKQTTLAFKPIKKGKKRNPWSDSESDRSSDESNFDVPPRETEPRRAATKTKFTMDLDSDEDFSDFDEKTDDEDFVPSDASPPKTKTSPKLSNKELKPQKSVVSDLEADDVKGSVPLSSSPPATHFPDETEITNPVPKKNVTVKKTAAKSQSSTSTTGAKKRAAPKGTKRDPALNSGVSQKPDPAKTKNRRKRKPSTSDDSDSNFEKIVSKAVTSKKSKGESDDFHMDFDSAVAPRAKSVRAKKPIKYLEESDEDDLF

Row | SMILES | Ratio [1] | inhibition [2] [%] | inhibition [3] [%] | inhibition [4] [%] | inhibition [5] [%] | Ratio [6] | Ratio [7] | IC50 [8] [µM] | IC50 [9] [µM] | IC50 [10] [µM] | Ratio [11] | inhibition [12] [%] | inhibition [13] [%]
1 | Cc1ccc2nc(-c3cccc(C(F)(F)F)c3)[nH]c(=O)c2c1 | 0.64 | 45.8 | 4.2 | 11.2 | 0 | 0.13 | 0.14 | > 50 | > 50 | > 50 |  |  | 
2 | Cc1cccc(-c2nc3cc(C)ccc3c(=O)[nH]2)c1 | 1.29 | 100 | 56.3 | 40.4 | 24.9 | 1.83 | 0.5 | 21.1 | > 50 | 11.2 | 0.5 |  | 
3 | Cc1ccc2nc(-c3ccccc3N(C)C)[nH]c(=O)c2c1 | 1.03 | 82.9 | 21.1 | 7.2 |  | 1.22 | 0.09 | > 50 | 26.7 | 14 |  |  | 
4 | COc1cccc(-c2nc3cc(C)ccc3c(=O)[nH]2)c1 | 1.29 | 100 | 80 | 43.6 | 25.2 | 2.6 | 0.54 | 4.85 | > 50 | 8.94 | 0.5 |  | 
5 | CCN(CC)c1ccc2nc(-c3ccccc3C(F)(F)F)[nH]c(=O)c2c1 | 0.98 | 81.7 | 13.3 | 9.4 |  | 0.49 | 0.11 | 0.28 | 2.55 | 0.1 |  |  | 
6 | O=c1[nH]c(-c2cccc3ccccc23)nc2ccc(N3CCOCC3)cc12 | 1.24 | 100 | 10.7 | 46.4 | 39.2 | 0.62 | 0.58 | > 50 | > 50 | 0.12 | 0.78 | 83.8 | 3.2
7 | Cc1ccc2c(=O)[nH]c(-c3cccc(F)c3)nc2c1 | 0.93 | 77.5 | 4.3 | 9.6 |  | 0.16 | 0.12 | 14.4 | > 50 | > 50 |  |  | 
8 | Cc1ccc2nc(-c3cccc4ccccc34)[nH]c(=O)c2c1 | 0.05 | 4.1 |  | 5.5 |  |  | 0.06 | > 50 | > 50 | 5.36 |  |  | 
9 | COc1cccc(-c2nc3ccc(C)cc3c(=O)[nH]2)c1 | 1.01 | 71.8 | 0 | 65.2 | 19 |  | 0.81 | 32 | > 50 | > 50 | 0.38 |  | 
10 | Cc1ccc2nc(-c3ccccc3C(F)(F)F)[nH]c(=O)c2c1 | 1.01 | 72 | 21.1 | 7.2 | 0 | 0.65 | 0.09 | > 50 | > 50 | 2.45 |  |  | 
11 | Cc1ccc2c(=O)[nH]c(-c3ccccc3C)nc2c1 | 1.29 | 100 | 39.2 | 61.4 | 30.8 | 1.27 | 0.77 | 11.9 | > 50 | > 50 | 0.62 | 32.4 | 0
12 | Cc1ccc2nc(-c3ccccc3OC(F)(F)F)[nH]c(=O)c2c1 | 0.83 | 66.9 | 0 | 5.47 |  |  | 0.06 | 2.79 | > 50 | 0.85 |  |  | 
13 | Cc1ccc2nc(-c3cccc(F)c3)[nH]c(=O)c2c1 | 1.03 | 82.9 | 0.2 | 0 |  | 0.01 |  | > 50 | > 50 | > 50 |  |  | 
14 | Cc1c2ccncc2c(C)c2c1[nH]c1ccccc12 |  |  |  |  |  |  |  |  |  |  |  | 88.3 | 
15 | Cc1ccc2nc(-c3ccccc3F)[nH]c(=O)c2c1 | 0.84 | 67.9 | 36.3 | 0 |  | 2.11 |  | > 50 | > 50 | > 50 |  |  | 
16 | Cc1cccc(-c2nc3ccc(C)cc3c(=O)[nH]2)c1 | 1.06 | 75.7 | 12.7 | 4.6 |  | 0.39 | 0.05 | > 50 | > 50 | > 50 |  |  | 
17 | Cc1ccc2c(=O)[nH]c(-c3ccccc3N(C)C)nc2c1 | 0.19 | 82.1 | 5.3 | 28.1 | 41.9 | 0.19 | 0.35 | 12.8 | 4.43 | 43.8 | 0.84 |  | 
